“Also recorded” adds a separate entry of the source.
What was measured:
S. mutans [1] = assay type: cell-based, Streptococcus mutans; conditions: S. mutans
Description: Typically, the in vitro antimicrobial activity of antimicrobial agents is tested using standard NCCLS bacterial inhibition assays, or MIC tests (see, National Committee on Clinical Laboratory Standards “Performance Standards for Antimicrobial Susceptibility Testing,” NCCLS Document M100-S5 Vol. 14, No. 16, December 1994; “Methods for dilution antimicrobial susceptibility test for bacteria that grow aerobically-Third Edition,” Approved Standard M7-A3, National Committee for Clinical Standards, Villanova, Pa.).
Briefly, ˜1×10^5 cfu/mL bacteria were diluted in TH (S. mutans), or Mueller-Hinton (MH) broth (all other organisms) and distributed to 96-well plates. Serially-diluted (2-fold) peptides were then added and the plates incubated at 37° C. for 18-24 h. […] All experiments were conducted 10 times.

S. epidermidis = test: Kill or inhibit growth/proliferation; morphology, biofilm and growth disruption (Tables 5, 6); assay type: cell-based, Staphylococcus epidermidis; design: key: A: Peptide aggregates; B: Less hyphal formation; Clumps; Diffuse clumps and small polyps; F: Diffuse growth; H: Thin; I: Growth inhibition; Microcolony formation; Rippled; Small polyps; Thick; W: Halo formation on top, microlonies on bottom; note: test concentration or dose not given here
microorganisms = test: Peptides having multiple activities (targeting/binding, antimicrobial, growth or phenotype altering)
From the text: In certain embodiments, peptides described herein can have multiple activities. Thus for example, a peptide can have both binding/targeting activity and antimicrobial activity. Such peptides can be used, e.g., in a chimeric construct, for any or all of these properties. Thus, for example, a peptide designated “B” in Table 8 can be used as a targeting peptide. If it is also designated G or M it can also be used for antimicrobial activity.

C. jeikeium = test: Kill or inhibit growth/proliferation; morphology, biofilm and growth disruption (Tables 5, 6); assay type: cell-based, Corynebacterium jeikeium; design: key: A: Peptide aggregates; B: Less hyphal formation; Clumps; Diffuse clumps and small polyps; F: Diffuse growth; H: Thin; I: Growth inhibition; Microcolony formation; Rippled; Small polyps; Thick; W: Halo formation on top, microlonies on bottom; note: test concentration or dose not given here
MRSA = test: as above; assay type: cell-based, Methicillin-resistant Staphylococcus aureus; design: key: A: Peptide aggregates; B: Less hyphal formation; Clumps; Diffuse clumps and small polyps; F: Diffuse growth; H: Thin; I: Growth inhibition; Microcolony formation; Rippled; Small polyps; Thick; W: Halo formation on top, microlonies on bottom; note: test concentration or dose not given here
B. subtilis = test: as above; assay type: cell-based, Bacillus subtilis; design: key: A: Peptide aggregates; B: Less hyphal formation; Clumps; Diffuse clumps and small polyps; F: Diffuse growth; H: Thin; I: Growth inhibition; Microcolony formation; Rippled; Small polyps; Thick; W: Halo formation on top, microlonies on bottom; note: test concentration or dose not given here
C. jejuni = test: as above; assay type: cell-based, Campylobacter jejuni; design: key: A: Peptide aggregates; B: Less hyphal formation; Clumps; Diffuse clumps and small polyps; F: Diffuse growth; H: Thin; I: Growth inhibition; Microcolony formation; Rippled; Small polyps; Thick; W: Halo formation on top, microlonies on bottom; note: test concentration or dose not given here
M. luteus = test: as above; assay type: cell-based, Micrococcus luteus; design: key: A: Peptide aggregates; B: Less hyphal formation; Clumps; Diffuse clumps and small polyps; F: Diffuse growth; H: Thin; I: Growth inhibition; Microcolony formation; Rippled; Small polyps; Thick; W: Halo formation on top, microlonies on bottom
S. pneumoniae = test: as above; assay type: cell-based, Streptococcus pneumoniae; design: key: A: Peptide aggregates; B: Less hyphal formation; Clumps; Diffuse clumps and small polyps; F: Diffuse growth; H: Thin; I: Growth inhibition; Microcolony formation; Rippled; Small polyps; Thick; W: Halo formation on top, microlonies on bottom; note: test concentration or dose not given here
P. aeruginosa = test: as above; assay type: cell-based, Pseudomonas aeruginosa; design: key: A: Peptide aggregates; B: Less hyphal formation; Clumps; Diffuse clumps and small polyps; F: Diffuse growth; H: Thin; I: Growth inhibition; Microcolony formation; Rippled; Small polyps; Thick; W: Halo formation on top, microlonies on bottom; note: test concentration or dose not given here
C. albicans = test: as above; assay type: cell-based, Candida albicans; design: key: A: Peptide aggregates; B: Less hyphal formation; Clumps; Diffuse clumps and small polyps; F: Diffuse growth; H: Thin; I: Growth inhibition; Microcolony formation; Rippled; Small polyps; Thick; W: Halo formation on top, microlonies on bottom; note: test concentration or dose not given here
E. coli = test: as above; assay type: cell-based, Escherichia coli; design: key: A: Peptide aggregates; B: Less hyphal formation; Clumps; Diffuse clumps and small polyps; F: Diffuse growth; H: Thin; I: Growth inhibition; Microcolony formation; Rippled; Small polyps; Thick; W: Halo formation on top, microlonies on bottom; note: test concentration or dose not given here
E. faecalis = test: as above; assay type: cell-based, Enterococcus faecalis; design: key: A: Peptide aggregates; B: Less hyphal formation; Clumps; Diffuse clumps and small polyps; F: Diffuse growth; H: Thin; I: Growth inhibition; Microcolony formation; Rippled; Small polyps; Thick; W: Halo formation on top, microlonies on bottom; note: test concentration or dose not given here
[2] = system: microorganisms (e.g., bacteria, yeasts, fungi); test: Targeting peptide binding to target microorganisms (Table 3); conditions: preferably 1x PBS; for Target(s) (microorganisms bound by the targeting peptide): peptide binding in aqueous buffers varied by peptide solubility
S. mutans [3] = test: Kill or inhibit growth/proliferation; morphology, biofilm and growth disruption (Tables 5, 6); assay type: cell-based, Streptococcus mutans; design: key: A: Peptide aggregates; B: Less hyphal formation; Clumps; Diffuse clumps and small polyps; F: Diffuse growth; H: Thin; I: Growth inhibition; Microcolony formation; Rippled; Small polyps; Thick; W: Halo formation on top, microlonies on bottom; note: test concentration or dose not given here
Throughout, for Organism, effect (morphology, biofilm and growth disruption): test concentration or dose not given here.
Throughout, for Organism, effect: test concentration or dose not given here.

FIRKFLKKWLL [Peptide K-9]
MIC (S. mutans [1]): S. mutans, 4 μM

FLKFLKKFFKKLKY [Peptide K-20]
MIC (S. mutans [1]): S. mutans, 8 μM

FTRKFLKFLHL [Peptide K-17]
MIC (S. mutans [1]): S. mutans, 8 μM

GIFKKFVKILYKVQKL [Peptide K-22]
MIC (S. mutans [1]): S. mutans, 8 μM

GILKKLFTKVF [Peptide K-13]
MIC (S. mutans [1]): S. mutans, 16 μM

GLGRVIGRLIKQIIWRR [Peptide K-1]
MIC (S. mutans [1]): S. mutans, 25 μM

GWLKMFKKIIGKFGKF [Peptide K-21]
MIC (S. mutans [1]): S. mutans, 8 μM

KILKFLFKKVF [Peptide K-8]
MIC (S. mutans [1]): S. mutans, 4 μM

KILKFLFKQVF [Peptide K-11]
MIC (S. mutans [1]): S. mutans, 4 μM

KILKKLFKFVF [Peptide K-12]
MIC (S. mutans [1]): S. mutans, 8 μM

KKFKKFKVLKIL [Peptide K-18]
MIC (S. mutans [1]): S. mutans, 16 μM

KLFKFLRKHLL [Peptide K-10]
MIC (S. mutans [1]): S. mutans, 4 μM

LLKLLKLKKLKF [Peptide K-19]
MIC (S. mutans [1]): S. mutans, 16 μM

PF-067: peptide having multiple activities (DLIVKVHICFVVKTASGYCYLNKREAQAAI; Peptide with targeting and/or antimicrobial activity)
Organism, effect (S. epidermidis): S. epidermidis (D) | Activities (microorganisms): G B | Organism, effect (C. jeikeium): C. jeikeium (D) | Organism, effect (MRSA): MRSA (M) | Organism, effect (B. subtilis): B. subtilis (C) | Organism, effect (C. jejuni): C. jejuni (D) | Organism, effect (M. luteus): M. luteus (R) | Organism, effect (S. pneumoniae): S. pneumoniae (D) | Organism, effect (P. aeruginosa): P. aeruginosa (A)

PF-140: peptide having multiple activities (FHRRVIRASEWALTTRSFSTPLRSAAR; Peptide with targeting and/or antimicrobial activity)
Organism, effect (S. epidermidis): S. epidermidis (D) | Organism, effect (C. albicans): C. albicans (B) | Activities (microorganisms): G B | Organism, effect (C. jeikeium): C. jeikeium (D) | Organism, effect (MRSA): MRSA (M) | Organism, effect (C. jejuni): C. jejuni (D) | Organism, effect (M. luteus): M. luteus (R) | Organism, effect (S. pneumoniae): S. pneumoniae (D) | Organism, effect (P. aeruginosa): P. aeruginosa (A)

PF-425: peptide having multiple activities (MMELVLKTIIGPIVVGVVLRIVDKWLNKDK; Peptide with targeting and/or antimicrobial activity)
Organism, effect (S. epidermidis): S. epidermidis (D) | Organism, effect (C. albicans): C. albicans (A) | Organism, effect (E. coli): E. coli (C) | Activities (microorganisms): G B | Organism, effect (E. faecalis): E. faecalis (D) | Target(s) ([2]; microorganism(s) the targeting peptide binds, peptide binding conducted in aqueous buffers varied by peptide solubility): S. epidermidis and M. luteus and E. coli and P. aeruginosa and C. albicans and MRSA and S. pneumoniae and C. jeikeium | Organism, effect (MRSA): MRSA (D) | Organism, effect (C. jejuni): C. jejuni (D) | Organism, effect (S. pneumoniae): S. pneumoniae (D) | Organism, effect (P. aeruginosa): P. aeruginosa (A)

PF-474: peptide having multiple activities (chain 1 MHRNLVLVKMEPIPHIMIIANQIGIIIEKA; chain 2 MHRNLVLVKMEPIPHIMIIANQIGIIIEKA; Peptide with targeting and/or antimicrobial activity)
Organism, effect (S. epidermidis): S. epidermidis (C) | Organism, effect (C. albicans): C. albicans (B) | Organism, effect (E. coli): E. coli (C) | Activities (microorganisms): G B | Organism, effect (E. faecalis): E. faecalis (C) | Organism, effect (MRSA): MRSA (D) | Organism, effect (C. jejuni): C. jejuni (D) | Organism, effect (S. pneumoniae): S. pneumoniae (D) | Organism, effect (P. aeruginosa): P. aeruginosa (A)

PF-605: peptide having multiple activities (HYRWNTQWWKY; Peptide with targeting and/or antimicrobial activity)
Organism, effect (S. epidermidis): S. epidermidis (R) | Organism, effect (C. albicans): C. albicans (B) | Organism, effect (E. coli): E. coli (C) | Activities (microorganisms): G B | Organism, effect (E. faecalis): E. faecalis (R) | Organism, effect (MRSA): MRSA (C) | Organism, effect (C. jejuni): C. jejuni (R) | Organism, effect (S. pneumoniae): S. pneumoniae (D) | Organism, effect (P. aeruginosa): P. aeruginosa (A)

PF-746: peptide having multiple activities (FLGNSQYFTRK; Peptide with targeting and/or antimicrobial activity)
Organism, effect (morphology, biofilm and growth disruption) (S. epidermidis): S. epidermidis (C) | Organism, effect (morphology, biofilm and growth disruption) (E. coli): E. coli (C) | Activities (microorganisms): G B | Organism, effect (morphology, biofilm and growth disruption) (S. mutans [3]): S. mutans (D) | Target(s) (microorganisms bound by the targeting peptide) [2]: S. epidermidis; also recorded: M. luteus; also recorded: E. coli; also recorded: C. albicans; also recorded: S. pneumoniae; also recorded: E. faecalis; also recorded: C. jeikeium | Organism, effect (morphology, biofilm and growth disruption) (MRSA): MRSA (C) | Organism, effect (morphology, biofilm and growth disruption) (M. luteus): M. luteus (C) | Organism, effect (morphology, biofilm and growth disruption) (S. pneumoniae): S. pneumoniae (C) | Organism, effect (morphology, biofilm and growth disruption) (P. aeruginosa): P. aeruginosa (A)

PF-761: peptide having multiple activities (SKFELVNYASGCSCGADCKCASETECKCASKK; Peptide with targeting and/or antimicrobial activity)
Organism, effect (morphology, biofilm and growth disruption) (S. epidermidis): S. epidermidis (C) | Organism, effect (morphology, biofilm and growth disruption) (E. coli): E. coli (C) | Activities (microorganisms): G B | Organism, effect (morphology, biofilm and growth disruption) (S. mutans [3]): S. mutans (D) | Target(s) (microorganisms bound by the targeting peptide) [2]: S. epidermidis and M. luteus and P. mirabilis and P. aeruginosa and C. albicans and MRSA and S. pneumoniae and E. faecalis | Organism, effect (morphology, biofilm and growth disruption) (MRSA): MRSA (D) | Organism, effect (morphology, biofilm and growth disruption) (M. luteus): M. luteus (C) | Organism, effect (morphology, biofilm and growth disruption) (S. pneumoniae): S. pneumoniae (C) | Organism, effect (morphology, biofilm and growth disruption) (P. aeruginosa): P. aeruginosa (C)

PF-S003: peptide having multiple activities (ALALLKQDLLNFEGRGRIITSTYLQFNEGCVP; Peptide with targeting and/or antimicrobial activity)
Organism, effect (morphology, biofilm and growth disruption) (S. epidermidis): S. epidermidis (R) | Organism, effect (morphology, biofilm and growth disruption) (C. albicans): C. albicans (A) | Activities (microorganisms): G B | Organism, effect (morphology, biofilm and growth disruption) (C. jeikeium): C. jeikeium (D) | Organism, effect (morphology, biofilm and growth disruption) (MRSA): MRSA (M) | Organism, effect (morphology, biofilm and growth disruption) (B. subtilis): B. subtilis (A) | Organism, effect (morphology, biofilm and growth disruption) (C. jejuni): C. jejuni (D) | Organism, effect (morphology, biofilm and growth disruption) (M. luteus): M. luteus (R) | Organism, effect (morphology, biofilm and growth disruption) (S. pneumoniae): S. pneumoniae (D) | Organism, effect (morphology, biofilm and growth disruption) (P. aeruginosa): P. aeruginosa (A)

— patent US20110039762A1, “TARGETED ANTIMICROBIAL MOIETIES” (C3 JIAN, INC., priority 2009, published 2011)
